The values that follow come from paper PMC9143004, “Antioxidant Properties and Aldehyde Reactivity of PD-L1 Targeted Aryl-Pyrazolone Anticancer Agents” (Molecules, 2022).

One series relates to CTLL-2 cells. Description: Reactivation of proliferation of CTLL-2 cells. The series is classed as cell-based. The settings on record: read-out: Proliferation (IC50): capacity to reactivate proliferation of CTLL-2 cells.
For another series, the target named is recombinant human PD-L1 (Homo sapiens, UniProt Q9NZQ7). Description: PD-L1 binding by microscale thermophoresis (MST). As to conditions: for Kd: affinity for PD-L1 measured by MST.
recombinant human PD-L1, sequence (Q9NZQ7 19-290): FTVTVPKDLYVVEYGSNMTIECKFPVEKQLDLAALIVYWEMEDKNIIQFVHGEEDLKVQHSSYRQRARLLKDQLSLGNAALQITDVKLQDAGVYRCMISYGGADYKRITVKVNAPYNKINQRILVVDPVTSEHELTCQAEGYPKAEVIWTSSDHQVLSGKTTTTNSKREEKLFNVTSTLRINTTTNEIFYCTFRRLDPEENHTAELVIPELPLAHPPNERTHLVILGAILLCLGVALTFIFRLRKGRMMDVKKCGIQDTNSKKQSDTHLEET
The target in another series is PD-L1/PD-1 interaction (Homo sapiens, UniProt Q9NZQ7). Nature of the series: Disruption of the PD-L1/PD-1 interaction in cells, FRET assay. In kind it is cell-based. The settings on record: read-out: Bioactivity (IC50): capacity to disrupt the PD-L1/PD-1 interaction in cells.
PD-L1/PD-1 interaction, sequence (Q9NZQ7 19-290): as above
Series [1] in a line: DPPH free radical scavenging EPR assay. As to conditions: read-out: DPPH EC50 (concentration reducing the EPR signal by 50%); DPPH 100 μM; test compound 2–90 μM. Here is the method: The antioxidant activity of the compounds was characterized for their free radical scavenging activities using DPPH (100 μM), chosen as a model radical. In this case, we monitor the decay in the DPPH EPR signal intensity which occurs when EPR-silent diamagnetic hydrazine counterparts are formed from DPPH. The first line DPPH signal intensity is then recorded in the presence of increasing amount of the test compound (2–90 μM). Representative dose-dependent variations of the EPR signal are shown in Figure 2a, for compounds EDA, 2 and 4. They all show the characteristic five-line EPR spectrum of DPPH, due to the hyperfine coupling with two equivalent nitrogens, and for which the intensity is proportional to the DPPH concentration, and its decay in the presence of an antioxidant. […] From these curves, the intensity of the EPR signal can be measured and its decay quantified (Figure 2b).
For each compound, the percentage of inhibition of the EPR signal was plotted as a function of the compound concentration, and the fitted curves used to determine EC50 values. The same procedure has been used to evaluate various types of antioxidant compounds [29]. […] In this test, the compounds rank in the order EDA, 2, 3 > 5 > 1 > 4.
(§1) CW-EPR experiments were performed with an X-band Bruker Elexsys E500 spectrometer (Bruker BioSpin GmbH, Rheinstetten, Germany) operating at 9.86 GHz. CW spectra were recorded at room temperature with a microwave power of 5.024–10.02 mW and a modulation amplitude of 1–2 G that assumes non-saturation conditions. The antioxidant activity was monitored using DPPH (1,1-diphenyl-2-picrylhydrazyl) at a final concentration of 100 µM as free radical scavenging molecule and DMPO (5,5-dimethyl-1-pyrroline N-oxide) as spin trap agent for the spin trapping experiments. The DMPO solution was freshly distillated prior to use at a final concentration of 1 mM or 2 mM. The solution mixture was filled into a glass capillary of 50 μL, which was in turn, placed in 4 mm quartz EPR tubes prior to analysis.
(§2) The percent inhibition of DPPH was calculated according to the following equation: I (%) = ((I0 − I)/I0) ∗ 100 where I0 is the area of the EPR spectrum of DPPH (control sample), and I is the area of the EPR spectrum of DPPH with antioxidant compound. The rate constant for the reaction of antioxidant compounds with ^•OCH3 is expressed by the following equation: 1/Ra = 1/Rf + (kr [AH]/(ka [DMPO] × Rf). Rf, and Ra indicate EPR signal area (double integration of EPR signal) of ^•OCH3, DMPO/^•OCH3, respectively. ka and [DMPO] are constants, and a plot of 1/Ra vs. [AH] (concentration of antioxidant compound) gives a straight line with 1/Rf as an intercept and kr/(ka[DMPO] Rf) as the slope. In these circumstances, the rate constant for the reaction of ^•OCH3 with antioxidant compounds (kr) can be expressed by the following equation: kr = (ka [DMPO] × slope)/interception.
(Loss of DPPH colour is used to gauge radical scavenging.)

The nature of series [2]: DMPO spin-trapping EPR assay under Fenton conditions in methanol. As to conditions: DMPO 1 or 2 mM, •OCH3 radical. Here is the method:
In this case, we monitor the formation of an oxygen centered radical generated in the presence of the spin trapping agent DMPO under Fenton conditions (hydrogen peroxide plus ferrous ions). For practical reasons (compound solubility), experiments were carried out using methanol as a solvent and therefore, the methoxy radical is monitored. A typical six-line EPR signal is recorded, corresponding to the DMPO/^•OCH3 radical, with the characteristic hyperfine coupling constants aN = 13.9 G and aH = 8.3 G. Here again, we can measure the decay of the EPR signal in the presence of the different antioxidant compounds and compare their relative capacity to reduce the signal. Typical concentration-dependent response curves are presented in Figure 3a for compounds EDA, 2 and 4. All six compounds can induce a decrease of the EPR signal but with various degrees of efficacy (Figure 3b). Here again, the results were quantified through the measure of the area of the EPR signal as a function of the compound concentration, to allow the calculation of the reaction constants for each compound. […] Proper dose-response curves were constructed and fitted to determine the reaction rate constant (kr) for each compound, as shown in Figure 3c and the kr values are collated in Table 2.
as §1, §2

The nature of series [3]: Solubility in the aqueous reaction medium. In kind it is physicochemical. The settings on record: methanol:ammonium formate buffer 5 mM pH 4.5 (40:60). How it is done: To begin with, each compound was incubated with an equimolar amount of 5fU for 180 min at 37 °C in a mixture of methanol and ammonium formate buffer 5 mM, pH 4.5 (40:60, v:v). […] In each case, the reaction mixture was introduced into the mass spectrometry equipment after a dilution in methanol to achieve a final concentration of 10 pmol/µL. The formation of drug-uracil adducts was monitored and unambiguously characterized by HRMS. […] There was no solubility issue with compound. The lack of reactivity is attributable to its adamantane unit which deactivates the adjacent reactive position or produces a steric hindrance. Otherwise, the other four compounds can react easily with 5fU to generate mono- and bis-adducts, as represented in Figure 4 with compound 2. In all cases, the observed molar mass and ring double bound value (RDB) value for the different species coincide perfectly with the expected mass (Δppm < 5 ppm) and RDB value (Table 3).

“And” between values parts separate entries of the source, which are not always exact repeats. Identical values can stand only once. Like-named read-outs stand apart in the source and are kept apart here.

As for `COc1nc(OCc2cccc(-c3ccccc3)c2C)ccc1CNCCNC(C)=O` [BMS-202, reference compound], the IC50 in the series with CTLL-2 cells (CTLL-2 cells) was found to be 53 ± 17 nM.

In the case of `CC1=NN(c2ccccn2)C(=O)C1` [Compound 1], the Kd on recombinant human PD-L1 was 77 ± 7 nM. Also, the IC50 amounted to 92 ± 9 nM on PD-L1/PD-1 interaction and 102 ± 8 nM in the series with CTLL-2 cells (Mus musculus, CTLL-2). Besides, the EC50 in series [1] was 70600 nM. For the same compound, the “DMPO kr (reaction rate constant)” value in series [2] is listed as 1.27 10^11 M^−1 s^−1.

For the compound `CC1=NN(c2ccc(Cl)cc2Cl)C(=O)C1` [Compound 2], the Kd on recombinant human PD-L1 was 34 ± 3 nM. The IC50 on PD-L1/PD-1 interaction was found to be 23 ± 3 nM; with CTLL-2 cells (Mus musculus, CTLL-2), 53 ± 11 nM. In addition, the EC50 in series [1] was found to be 36500 nM. Also, the “DMPO kr (reaction rate constant)” value in series [2] is recorded as 1.93 10^11 M^−1 s^−1.

On to `COc1ccccc1C1=NN(c2ccc(Cl)cc2Cl)C(=O)C1` [Compound 3], for which the IC50 in the series with CTLL-2 cells (Mus musculus, CTLL-2) is 79 ± 7 nM. The EC50 in series [1] came to 34000 nM. Moreover, the “DMPO kr (reaction rate constant)” value in series [2] is 1.88 10^11 M^−1 s^−1.

`O=C1CC(c2ccc(Cl)cc2)=NN1c1ccc(Cl)cc1Cl` [Compound 4]: on recombinant human PD-L1, the Kd came out at 7 ± 3 nM. Further, the IC50 at PD-L1/PD-1 interaction was 3 ± 2 nM; with CTLL-2 cells (Mus musculus, CTLL-2), 124 ± 7 nM. Also, the EC50 in series [1] is 97000 nM and 97600 nM. The “DMPO kr (reaction rate constant)” value in series [2] is 1.04 10^11 M^−1 s^−1. Also, the “Solubility in the aqueous medium” value in series [3] is “limited solubility”.

On to `O=C1CC(C23CC4CC(CC(C4)C2)C3)=NN1c1ccccc1Cl` [Compound 5], for which the Kd on recombinant human PD-L1 is 12 ± 2 nM. Further, the IC50 at PD-L1/PD-1 interaction amounted to 23 ± 6 nM; in the series with CTLL-2 cells (Mus musculus, CTLL-2), 57 ± 9 nM. In addition, in series [1], the EC50 came to 59700 nM. Besides, in series [2], the “DMPO kr (reaction rate constant)” value is 1.25 10^11 M^−1 s^−1.

Regarding `CC1=NN(c2ccccc2)C(=O)C1` [EDA, 1-phenyl-3-methyl-5-pyrazolone, reference compound], at recombinant human PD-L1 (statement in the discussion), the “Activity toward PD-L1” value was “totally inactive”. Also, the EC50 in series [1] was determined as 35800 nM. Moreover, the “DMPO kr (reaction rate constant)” value in series [2] is reported as 2.59 10^11 M^−1 s^−1.

Take “Nivolumab: reference listed in Table 1; the paper does not describe it further”: the IC50 with CTLL-2 cells (CTLL-2 cells) turned out to be 58 ± 3 nM.

As usually defined, the Kd is the constant that tells how readily two partners part at equilibrium.
